22 compounds from patent US10947237B2, “Antimicrobial compounds and methods of making and using the same” (BIOVERSYS AG, priority 2015, dated 2021) can be followed below.

Broadly, the MIC is the lowest concentration that inhibits growth of the organism. A high value points to a less susceptible organism.

For experiment [1], the system named is Staphylococcus aureus (S. aureus) 11540 strain. As to the kind of experiment: standard microdilution assay, minimum inhibitory concentration (MIC). The format is cell-based. In short, it runs like this:
(§1)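 Compounds were scored +/− against a 16 µg/mL MIC cutoff, using CLSI-based microdilution with QC reference strains. The organisms were S. aureus 11540 and E. coli ATCC25922.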
(In general: Dilution methods test growth across graded concentrations, often in twofold steps.)

In experiment [2] the test system is Eschericia coli (E. Coli) strain ATCC25922. The experiment is described as above. It counts as cell-based. As to conditions: Escherichia coli. The procedure, abridged:
as §1

A value given as a limit tells only on which side of the number the result lay.

On to `CC(=N)NCC[C@@H]1CCC[C@@H](c2ccc(-n3cc4cc(-c5cc(CCC[C@@H](N)CO)cc(Cl)c5F)[nH]c4nc3=O)cc2)N1` [Compound 151], for which the MIC in experiment [1] (Table 2, 11540 strain) was ≤ 16 µg/mL; in experiment [2] (Table 2, strain ATCC25922), ≤ 16 µg/mL.
As for `C[C@H](N)CCCC1CC(c2cc3cn(-c4ccc([C@H](C)NCCCNC(=N)N)cc4)c(=O)nc3[nH]2)CCN1` (some centres unmarked) [Compound 152], the minimal inhibitory concentration (MIC) was ≤ 16 µg/mL in experiment [1] (Table 2, 11540 strain) and ≤ 16 µg/mL in experiment [2] (Table 2, strain ATCC25922).
As for `C[C@H](N)CCCc1cc(Cl)c(F)c(-c2cc3cn(-c4ccc(CO[C@H](CCNC(=N)N)CN(C)C)cc4)c(=O)nc3[nH]2)c1` [Compound 159], the MIC in experiment [1] (Table 2a) is ≤ 16 µg/mL; in experiment [2] (ATCC25922, Table 2a) it was ≤ 16 µg/mL.
As to `C=C[C@H](N)CCCc1cc(Cl)c(F)c(-c2cc3cn(-c4ccc(CO[C@H](CCNC(=N)N)CNC(=N)N)cc4)c(=O)nc3[nH]2)c1` [Compound 160], the MIC was ≤ 16 µg/mL in experiment [1] (Table 2a) and ≤ 16 µg/mL in experiment [2] (ATCC25922, Table 2a).
As to `COC[C@H](N)CCCc1cc(OC(F)(F)F)c(F)c(-c2cc3cn(-c4ccc(CO[C@H](CCNC(C)=N)CNC(C)=N)cc4)c(=O)nc3[nH]2)c1` [Compound 161], the MIC is ≤ 16 µg/mL in experiment [1] (Table 2a) and ≤ 16 µg/mL in experiment [2] (ATCC25922, Table 2a).
For the compound `N=C(N)NCC[C@H](CNC(=N)N)OCc1ccc(-n2cc3cc(-c4cc(CCC[C@@H](N)CF)cc(Cl)c4F)[nH]c3nc2=O)cc1` [Compound 162], the minimal inhibitory concentration (MIC) in experiment [1] (Table 2a) is ≤ 16 µg/mL; in experiment [2] (ATCC25922, Table 2a), ≤ 16 µg/mL.
Regarding `N=C(N)NCC[C@H](CNC(=N)N)OCc1ccc(-n2cc3cc(-c4cc(CCC[C@@H](N)CO)cc(Cl)c4F)[nH]c3nc2=O)cc1` [Compound 163], the MIC is ≤ 16 µg/mL in experiment [1] (Table 2a) and ≤ 16 µg/mL in experiment [2] (ATCC25922, Table 2a).
Take `N=C(N)NCC[C@H](CNC(=N)N)OCc1ccc(-n2cc3cc(-c4cc(CCC[C@@H](N)C5CC5)cc(Cl)c4F)[nH]c3nc2=O)cc1` [Compound 164]: the MIC was ≤ 16 µg/mL in experiment [1] (Table 2a) and ≤ 16 µg/mL in experiment [2] (ATCC25922, Table 2a).
With `COC[C@H](N)CCCc1cc(OC(F)(F)F)c(F)c(-c2cc3cn(-c4ccc(CO[C@H](CCNC(=N)N)CNC(=N)N)cc4)c(=O)nc3[nH]2)c1` [Compound 165], the MIC in experiment [1] (Table 2a) is ≤ 16 µg/mL; in experiment [2] (ATCC25922, Table 2a), ≤ 16 µg/mL.
`CC(C)(N)CCCc1cc(Cl)c(F)c(-c2cc3cn(-c4ccc(CO[C@H](CCNC(=N)N)CNC(=N)N)cc4)c(=O)nc3[nH]2)c1` [Compound 166]: the MIC in experiment [1] (Table 2a) was ≤ 16 µg/mL; in experiment [2] (ATCC25922, Table 2a), ≤ 16 µg/mL.
With `C[C@H](N)CCCc1cc(Cl)c(F)c(-c2cc3cn(-c4ccc(CO[C@H](CCNS(C)(=O)=O)CNC(=N)N)cc4)c(=O)nc3[nH]2)c1` [Compound 167], the MIC in experiment [1] (Table 2a) was ≤ 16 µg/mL; in experiment [2] (ATCC25922, Table 2a), ≤ 16 µg/mL.
Take `CC(=N)NC[C@@H](CCNC(=N)N)OCc1ccc(-n2cc3cc(-c4cc(CCC[C@H](C)N)cc(Cl)c4F)[nH]c3nc2=O)cc1` [Compound 168]: the MIC in experiment [1] (Table 2a) is ≤ 16 µg/mL; in experiment [2] (ATCC25922, Table 2a), ≤ 16 µg/mL.
Consider `CC(=N)NCC[C@H](CNC(C)=N)OCc1ccc(-n2cc3cc(-c4cc(CCC[C@H](C)N)cc(Cl)c4F)[nH]c3nc2=O)cc1` [Compound 169], for which the minimum inhibitory concentration (MIC) in experiment [1] (Table 2a) was ≤ 16 µg/mL; in experiment [2] (ATCC25922, Table 2a), ≤ 16 µg/mL.
For the compound `C[C@H](N)CCCc1cc(Cl)c(F)c(-c2cc3cn(-c4ccc(CO[C@H](CCNC(N)=O)CNC(=N)N)cc4)c(=O)nc3[nH]2)c1` [Compound 170], the minimal inhibitory concentration (MIC) is ≤ 16 µg/mL in experiment [1] (Table 2a) and ≤ 16 µg/mL in experiment [2] (ATCC25922, Table 2a).
Turning to `CC(=N)NCC[C@H](CNC(=N)N)OCc1ccc(-n2cc3cc(-c4cc(CCC[C@H](C)N)cc(Cl)c4F)[nH]c3nc2=O)cc1` [Compound 171], the MIC in experiment [1] (Table 2a) is ≤ 16 µg/mL; in experiment [2] (ATCC25922, Table 2a) it was ≤ 16 µg/mL.
In the case of `CC(=N)NCC[C@@H](CNC(=N)N)OCc1ccc(-n2cc3cc(-c4cc(CCC[C@H](C)N)cc(Cl)c4F)[nH]c3nc2=O)cc1` [Compound 172], the MIC in experiment [1] (Table 2a) was ≤ 16 µg/mL; in experiment [2] (ATCC25922, Table 2a), ≤ 16 µg/mL.
For the compound `CC(=N)NCC[C@@H](CNC(C)=N)OCc1ccc(-n2cc3cc(-c4cc(CCC[C@H](C)N)cc(Cl)c4F)[nH]c3nc2=O)cc1` [Compound 173], the MIC in experiment [1] (Table 2a) is ≤ 16 µg/mL; in experiment [2] (ATCC25922, Table 2a), ≤ 16 µg/mL.
Turning to `C[C@H](N)CCCc1cc(Cl)c(F)c(-c2cc3cn(-c4ccc(CO[C@@H](CCNC(=N)N)CNC(=N)N)cc4)c(=O)nc3[nH]2)c1` [Compound 174], the MIC in experiment [1] (Table 2a) is ≤ 16 µg/mL; in experiment [2] (ATCC25922, Table 2a) it was ≤ 16 µg/mL.
As to `CC(=N)NC[C@H](CCNC(=N)N)OCc1ccc(-n2cc3cc(-c4cc(CCC[C@H](C)N)cc(Cl)c4F)[nH]c3nc2=O)cc1` [Compound 175], the MIC in experiment [1] (Table 2a) was ≤ 16 µg/mL; in experiment [2] (ATCC25922, Table 2a) it was ≤ 16 µg/mL.
Turning to `CC(=N)NCC[C@H](CN)OCc1ccc(-n2cc3cc(-c4cc(CCC[C@H](C)N)cc(Cl)c4F)[nH]c3nc2=O)cc1` [Compound 176], the MIC was ≤ 16 µg/mL in experiment [1] (Table 2a) and ≤ 16 µg/mL in experiment [2] (ATCC25922, Table 2a).
On to `C[C@H](N)CCCc1cc(Cl)c(F)c(-c2cc3cn(-c4ccc(CO[C@H](CCN5CCNC5=O)CNC(=N)N)cc4)c(=O)nc3[nH]2)c1` [Compound 177], for which the MIC in experiment [1] (Table 2a) was ≤ 16 µg/mL; in experiment [2] (ATCC25922, Table 2a), ≤ 16 µg/mL.
As for `CC(=N)NCC[C@@H](CN)OCc1ccc(-n2cc3cc(-c4cc(CCC[C@H](C)N)cc(Cl)c4F)[nH]c3nc2=O)cc1` [Compound 178], the MIC is ≤ 16 µg/mL in experiment [1] (Table 2a) and ≤ 16 µg/mL in experiment [2] (ATCC25922, Table 2a).
